Laboratory results as given in BindingDB's records for doi:10.7270/Q2JQ0ZGP (Nmmlsc, 2010).

Molecular target: 60S ribosomal protein L19-A (Saccharomyces cerevisiae (strain ATCC 204508 / S288c), UniProt P0CX82)
Assay: Dose response follow up of MLPCN hits, RPL19A GFP fusion, TOR pathway (AID 2740)

Chain of 60S ribosomal protein L19-A (P0CX82 whole entry, the tested form may be a part): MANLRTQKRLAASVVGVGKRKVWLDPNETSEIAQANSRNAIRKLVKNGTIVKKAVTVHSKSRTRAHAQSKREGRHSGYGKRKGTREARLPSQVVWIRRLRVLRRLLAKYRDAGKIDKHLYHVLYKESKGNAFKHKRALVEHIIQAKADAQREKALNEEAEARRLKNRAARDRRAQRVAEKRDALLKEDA

## CS(=O)(=O)c1nc(-c2cccs2)cc(C(F)(F)F)n1 [MLS000044645]
  EC50: > 33 µM

## O=C1NC(=S)NC(=O)C1=Cc1ccc2c(c1)CCN2CCCCl [5-[[1-(3-chloropropyl)-2,3-dihydroindol-5-yl]methylidene]-2-sulfanylidene-1,3-diazinane-4,6-dione]
  EC50: > 33 µM
